Consider 13 compounds from patent US8871288B2, “Aromatic neomenthylamides as flavoring substances” (Symrise AG, priority 2007, dated 2014).

A short description of experiment [1]: Flavor impression of the individual compounds. Conditions: tasting of the compound as such. The format is in vivo.
The conditions of experiment [2]: cited from earlier work; for sensorial impression: prior art (US 2004/0202760, US 2004/0202619, US 2006/057268, 2006/068071); for effect in the oral cavity: known naturally occurring alkamides.
Experiment [3] can be described thus: Flavor comparison in American beef bouillon base with MSG, panel of trained testers (FIG. 1). The format is in vivo. Conditions: 5 ppm of 1:1 mixture in American beef bouillon base vs base with 0.05% by weight MSG. As to the method: This is also shown by the spider diagram which is appended as FIG. 1 and in which an American beef bouillon as a base is compared (i) to a base of the type to which 5 ppm of a 1:1 mixture of benzo[1,3]dioxol-5-carboxylic acid ((1S,2S,5R)-2-isopropyl-5-methylcyclohexyl)amide (3) and benzo[1,3]dioxol-5-carboxylic acid ((1R,2R,5S)-2-isopropyl-5-methylcyclohexyl)amide (4) are added and (ii) to a base of the type to which 0.05% by weight of MSG (sodium glutamate) is added.
The flavor of a 0.5% American beef extract as a base (solid, light line) was compared, based on a tasting performed by a panel of trained testers, with the flavor firstly of a base of this type to which 5 ppm of a mixture of benzo[1,3]dioxol-5-carboxylic acid ((1S,2S,5R)-2-isopropyl-5-methylcyclohexyl)amide (3) and benzo[1,3]dioxol-5-carboxylic acid ((1R,2R,5S)-2-isopropyl-5-methylcyclohexyl)amide (4) were added (solid, dark line), and secondly of a base of this type to which 0.05% by weight of MSG was added (dotted line).
The testers judged the […] of the specified types of flavor in each case by awarding scores on a scale of from 0 (no corresponding flavor) to 6 (very strong corresponding flavor). The average values of the respective scores are shown.

Experiment [4] can be described thus: Panel tasting, green tea drink (Application Example 11). The format is in vivo. The note with it: 0.004% by weight of a 1% solution in propylene glycol in green tea drink, sterilized at 118° C. As to the method: The green tea concentrate is mixed with a 1% solution of a 1:1 mixture of the compounds (3)+(4) in propylene glycol. Afterwards, demineralized water is poured in and the mixture is again thoroughly stirred. Then the product is filtered, packed ready for consumption and sterilized at 118° C.

As for `COC(=O)c1ccc(C(=O)N[C@H]2C[C@H](C)CC[C@H]2C(C)C)cc1` [(1), N-((1S,2S,5R)-2-isopropyl-5-methylcyclohexyl)terephthalic acid methyl ester], the flavor impression result in experiment [1] is “umami flavor without very bitter accompanying notes”.

For `COC(=O)c1ccc(C(=O)N[C@@H]2C[C@@H](C)CC[C@@H]2C(C)C)cc1` [(2), N-((1R,2R,5S)-2-isopropyl-5-methylcyclohexyl)terephthalic acid methyl ester], the flavor impression result in experiment [1] was “umami flavor without very bitter accompanying notes”.

For `CC(C)[C@@H]1CC[C@@H](C)C[C@@H]1NC(=O)c1ccc2c(c1)OCO2` [(3), benzo[1,3]dioxol-5-carboxylic acid ((1S,2S,5R)-2-isopropyl-5-methylcyclohexyl)amide], the flavor impression result in experiment [1] is “very strong umami flavor”.

Turning to `CC(C)[C@H]1CC[C@H](C)C[C@H]1NC(=O)c1ccc2c(c1)OCO2` [(4), benzo[1,3]dioxol-5-carboxylic acid ((1R,2R,5S)-2-isopropyl-5-methylcyclohexyl)amide], the flavor impression result in experiment [1] is “very strong umami flavor”.

In the case of `CC(C)[C@@H]1CC[C@@H](C)C[C@@H]1NC(=O)Cc1ccc2c(c1)OCO2` [(5), 2-benzo[1,3]dioxol-5-yl-N-((1S,2S,5R)-2-isopropyl-5-methylcyclohexyl)acetamide], the flavor impression entry in experiment [1] is recorded as “in addition to an umami flavor, a slightly salty note”.

Regarding `CC(C)[C@H]1CC[C@H](C)C[C@H]1NC(=O)Cc1ccc2c(c1)OCO2` [(6), 2-benzo[1,3]dioxol-5-yl-N-((1R,2R,5S)-2-isopropyl-5-methylcyclohexyl)acetamide], in experiment [1], the flavor impression result is recorded as “in addition to an umami flavor, a slightly salty note”.

In the case of `CC(C)=CCCC(C)=CCNC(=O)C1CC1` [N-3,7-dimethyl-2,6-octadienyl cyclopropylcarboxamide], the sensorial impression result in experiment [2] is “salt and umami intensifier”.

Consider `CC/C=C\CC/C=C/C(=O)NC1CC1` [N-cyclopropyl-E2,Z6-nonadienamide], for which the sensorial impression entry in experiment [2] is given as “MSG-like effect”.

For `CCCCC/C=C\CC/C=C/C(=O)NCC` [N-ethyl-E2,Z6-dodecadienamide], in experiment [2], the sensorial impression entry is “MSG-like effect”.

Turning to `CC/C=C\CC/C=C/C(=O)NCC` [N-ethyl-E2,Z6-nonadienamide], in experiment [2], the sensorial impression entry is on record as “MSG-like effect”.

Regarding `CCCCC/C=C/C=C/C(=O)NCC(C)C` [pellitorine], in experiment [2], the “effect in the oral cavity” value is “a salivatory and tingling effect, a long-lasting and numbing effect in the oral cavity”.

Regarding `C/C=C/C=C\CC/C=C/C(=O)NCC(C)C` [spilanthol], the “effect in the oral cavity” value in experiment [2] was “a salivatory and tingling effect, a long-lasting and numbing effect in the oral cavity”.

Regarding “Benzo[1,3]dioxole-5-carboxylic acid((1S,2S,5R)-2-isopropyl-5-methylcyclohexyl)amide (3)/benzo[1,3]dioxole-5-carboxylic acid((1R,2R,5S)-2-isopropyl-5-methylcyclohexyl)amide (4) [1:1 mixture of the compounds (3)+(4)]”, the “flavor compared to other umami-tasting compounds and to sodium glutamate (MSG)” value in experiment [3] is “clear umami flavor which is very similar to sodium glutamate (MSG)”. Also, the “taste compared to the non-aromatized green tea base” value in experiment [4] is on record as “clearly preferable”.
